79 molecules from the METLIN SMRT retention time set (Domingo-Almenara et al. 2019) can be followed below.

The nature of this data set: gradient 5% acetonitrile 3 min, to 50% in 2 min, to 85% in 15 min, held 3 min, 100 µL/min. Particulars: column: Zorbax Extend-C18 2.1 x 50 mm; eluents: water / acetonitrile, 0.1% formic acid. The procedure, abridged: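 Values are retention times taken from adduct peaks that software picked and an analyst inspected. The pure standards were run as mixtures of ~100 molecules on HPLC linked to a quadrupole time-of-flight mass spectrometer, in positive and negative ionization mode. A Zorbax Extend-C18 column (2.1 × 50 mm, 1.8 μm) was used at 100 μL/min with water and acetonitrile, each including 0.1% formic acid.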
Molecule `Cc1ccc(-c2nnc(Cc3nc(-c4ccccc4Cl)no3)o2)cc1C` gave an RP-LC retention time of 1230 s.

As to `C=C1/C(=C/C=C2/CCC[C@]3(C)[C@@H]([C@H](C)CCCC(C)C)CC[C@@H]23)C[C@@H](O)C[C@@H]1O`, the RP-LC retention time was determined as 1220 s.

The molecule `N#Cc1cccc(C(=O)N2CCCn3nc(-c4cccs4)cc3C2)c1` gave an RP-LC retention time of 720 s.

Consider `CCOC(=O)c1cccc(NC(=O)Cn2cnc3nc(N4CCCC(C(=O)NC)C4)sc3c2=O)c1` (centres undefined), for which the RP-LC retention time was 678 s.

Turning to `CCCC(=O)N1CCN(c2ccc(=O)n(-c3ccc(Cl)cc3)n2)CC1`, the RP-LC retention time was found to be 778 s.

In the case of `O=C(NCCc1ccco1)C1CCCN(C(=O)c2cccn2-c2cccnc2)C1` (centres undefined), the RP-LC retention time came out at 660 s.

In turn, `CCc1nc(-c2csc(S(=O)(=O)N3CCC(C(=O)N4CCC5(CC4)OCCO5)CC3)c2)no1` came in with an RP-LC retention time of 816 s.

As for `Cc1nc(-c2csc(S(=O)(=O)N3CCCC(C(=O)Nc4ccc(C(C)C)cc4)C3)c2)no1` (centres undefined), the RP-LC retention time was 1090 s.

Consider `Cn1nc(C(=O)N2CCCC(C(=O)Nc3ccccc3)C2)c2c1CCN(C(=O)c1cccs1)C2` (centres undefined), for which the RP-LC retention time is 730 s.

For the molecule `COC(=O)c1ccc2c(=O)n(-c3cc(OC)cc(OC)c3)c(N3CCN(C(C)C)CC3)nc2c1`, the RP-LC retention time is 668 s.

As for `Cc1cc(C)nc(SCc2ccc(C(=O)NCCc3c[nH]c4ccccc34)o2)n1`, the RP-LC retention time came to 894 s.

Molecule `COc1cccc(-n2nc(-c3nc(-c4ccccn4)no3)c3ccccc3c2=O)c1` yielded an RP-LC retention time of 1020 s.

In the case of `CCCCN(C)C(=O)C1CCN(S(=O)(=O)c2ccc3c(c2)sc(=O)n3C)CC1`, the RP-LC retention time is 822 s.

Take `CCOC(=O)c1c(S(=O)(=O)N2CCC(C(=O)Nc3ccc(C)c(C)c3)CC2)c(C)n(CC)c1C`: the RP-LC retention time was found to be 975 s.

In turn, `COc1ccc(C(=O)NCc2ccc3c(c2)OCO3)nn1` yielded an RP-LC retention time of 654 s.

Take `O=C1CCCCC(CNC(=O)C2(c3ccccc3)CC2)N1` (centres undefined): the RP-LC retention time worked out at 697 s.

For the molecule `CN(c1ccc(F)cc1)S(=O)(=O)N1CCCC(C(=O)NCCCN2CCc3ccccc3C2)C1` (centres undefined), the RP-LC retention time came out at 706 s.

Consider `CCCNC(=O)C1CCCN(c2ccc(SCC(=O)Nc3ccccc3F)nn2)C1` (centres undefined), for which the RP-LC retention time was 620 s.

The molecule `CC(C)NCc1ccc(-c2ccc(F)cc2)o1` showed an RP-LC retention time of 647 s.

In turn, `O=C(Cn1nc(-c2ccccc2)c2cc(Cl)ccc21)NC1CCCC1` displayed an RP-LC retention time of 1130 s.

As for `O=C(CCC1CCCN(S(=O)(=O)c2cccc(F)c2)C1)NCC1CC1` (centres undefined), the RP-LC retention time worked out at 822 s.

`O=C(c1ccc(-c2ccsc2)nc1)N1CCCCC1` came in with an RP-LC retention time of 792 s.

For `CCCn1cc(C(=O)NCCOC)c(S(=O)(=O)N2CCN(c3ccccc3OCC)CC2)n1`, the RP-LC retention time was 959 s.

On to `CCOC(=O)N1CCC(NC(=O)C2(c3ccc(F)cc3)CC2)CC1`, for which the RP-LC retention time was found to be 796 s.

Turning to `Cc1ccc(N2CCC(NC(=O)c3ccccc3C(F)(F)F)C2=O)cc1` (centres undefined), the RP-LC retention time stood at 885 s.

`CCc1nnc(NC(=O)CSc2nc3ccccc3[nH]2)s1`: the RP-LC retention time stood at 656 s.

The molecule `Cc1nn(-c2nc(-c3ccc(Cl)cc3)cs2)c(C)c1CC(=O)Nc1cccc(C(F)(F)F)c1` came in with an RP-LC retention time of 1380 s.

Take `CCc1ccc2c(c1)-c1ccccc1S(=O)(=O)N2CC(=O)NCc1ccncc1`: the RP-LC retention time amounted to 703 s.

On to `Cc1cccc(N2CCN(C(=O)c3cn(-c4ccc(NC(=O)C5CC5)cn4)cn3)CC2)c1C`, for which the RP-LC retention time worked out at 901 s.

Molecule `CCOC(=O)c1ccc(NS(=O)(=O)c2c[nH]c3ncccc23)cc1` displayed an RP-LC retention time of 734 s.

Take `CC1CN(C(=O)CCC(=O)NC2CCN(Cc3ccccc3)CC2)c2cc(Cl)ccc2O1` (centres undefined): the RP-LC retention time was found to be 694 s.

For the molecule `Cc1nc(-c2cnccn2)n(CC(=O)Nc2ccc(F)cc2)c(=O)c1C`, the RP-LC retention time worked out at 709 s.

For the molecule `CCC1CN(C(=O)N2CCC(C(=O)NCCCN3CCCCC3)CC2)c2ccccc2O1` (centres undefined), the RP-LC retention time is 643 s.

For `O=C(CCCc1ccccc1)N1CCN(c2nc(CN3CCOCC3)cs2)CC1`, the RP-LC retention time came to 639 s.

`Cc1ccc2nc(-c3c(F)cccc3Cl)c(Nc3ccccc3C)n2c1` came in with an RP-LC retention time of 777 s.

`COc1ccc(S(=O)Cc2ccc(C(=O)NCCCN3CCCCC3)o2)cc1` (centres undefined) had an RP-LC retention time of 587 s.

In the case of `CC(C)c1noc(C2(NC(=O)c3cccc(F)c3)CCCCC2)n1`, the RP-LC retention time came to 1040 s.

Consider `COc1ccc(Cl)cc1S(=O)(=O)N1CCc2c(c(-c3nnc(-c4ccccc4)o3)nn2C)C1`, for which the RP-LC retention time came out at 958 s.

Consider `Cc1nc([C@@H]2CN(C(=O)c3sc(C)nc3C)C[C@H]2C(N)=O)n[nH]1`, for which the RP-LC retention time was found to be 550 s.

Molecule `Cc1csc(-c2cc(S(=O)(=O)N3CCN(C4CCCCC4)CC3)c(C)s2)n1` gave an RP-LC retention time of 714 s.

`CC(C)n1c(=O)sc2cc(S(=O)(=O)N3CCC(C(=O)NCC4CCCO4)CC3)ccc21` (centres undefined) returned an RP-LC retention time of 762 s.

In turn, `CC1=C(c2ccccc2)S(=O)(=O)N=C1N1CCCN(C(=O)c2cccc(F)c2)CC1` came in with an RP-LC retention time of 847 s.

`COc1cc(C(=O)Nc2ccc(-c3cn4ccc(C)nc4n3)cc2)cc(OC)c1OC` showed an RP-LC retention time of 634 s.

`CCOc1ccc(/C=C2\CCc3ccccc3C2=O)cc1` showed an RP-LC retention time of 1290 s.

`Cc1ccc(NC(=O)N(C)CC2CCOC2)cc1F` (centres undefined): the RP-LC retention time turned out to be 722 s.

For the molecule `COc1cccc(-c2ccc3nc(N4CCC(C(=O)NCCN(C)C)CC4)sc3n2)c1`, the RP-LC retention time amounted to 669 s.

In turn, `CCOC(=O)c1sc(NC(=O)COc2ccccc2Br)nc1C` gave an RP-LC retention time of 1050 s.

In turn, `CCS(=O)(=O)c1ccc2c(c1)N(Cc1nc(-c3cccc(Br)c3)no1)C(=O)CO2` came in with an RP-LC retention time of 988 s.

Molecule `O=C(Nc1ccc(C2(C(=O)N3CCCCCC3)CCC2)cc1)C1CC1` had an RP-LC retention time of 844 s.

Molecule `Cc1nc(-c2ccc3c(c2)n(CC(=O)NC2CCCC2)c(=O)n3C(C)C)no1` showed an RP-LC retention time of 780 s.

`Cc1nn(C)c(C)c1CCN(C)c1nc(C2CC2)nc2c1CCC2` had an RP-LC retention time of 604 s.

`CCc1ccccc1NC(=O)C1CC(=O)N(c2ccc3c(c2)CCN3C(C)=O)C1` (centres undefined) gave an RP-LC retention time of 698 s.

`Cc1nn(CC(=O)NC2CCCc3ccccc32)c(=O)c2c(C)n(-c3ccccc3)nc12` (centres undefined) had an RP-LC retention time of 937 s.

Take `COc1ccc(Cl)cc1NC(=O)Cn1cccc1-c1nnc(C2CCC2)o1`: the RP-LC retention time came out at 1040 s.

In turn, `CCOc1ccc(C(=O)N2CCCC(c3nnc(-c4ccccc4)o3)C2)cc1` (centres undefined) yielded an RP-LC retention time of 892 s.

The molecule `O=C(c1nccc2ccccc12)N1CCC(OCC2CC2)C1` (centres undefined) gave an RP-LC retention time of 722 s.

For the molecule `CC(=O)N1CCc2nn(CC(=O)Nc3ccccc3Cl)c(=O)cc2C1`, the RP-LC retention time worked out at 606 s.

For `CCc1nnc2cc(N3CCN(Cc4cn[nH]c4-c4ccccc4)CC3)cnn12`, the RP-LC retention time turned out to be 541 s.

As to `CCOc1ccc(S(=O)(=O)N2CCCC(C(=O)NCc3ccncc3)C2)cc1C` (centres undefined), the RP-LC retention time came to 659 s.

`Cc1ccn2cc(-c3ccc(NS(=O)(=O)c4ccc(-c5csc(C)n5)s4)cc3)nc2n1` gave an RP-LC retention time of 679 s.

`CNC(=O)[C@@H]1CN(C(=O)CCn2nc(C)cc2C)C[C@H]1c1n[nH]c(C)n1` displayed an RP-LC retention time of 554 s.

Consider `CC(=O)c1cccc(S(=O)(=O)Nc2ccc(CC(=O)N(C)C)cc2)c1`, for which the RP-LC retention time worked out at 651 s.

`CN1CCCc2cc(C(CNC(=O)C(=O)NC3CCCCC3)N(C)C)ccc21` (centres undefined) registered an RP-LC retention time of 598 s.

In turn, `COc1ccc(C2CCCN2C(=O)Cc2cccs2)cc1` (centres undefined) came in with an RP-LC retention time of 875 s.

`O=C(NCCn1ncccc1=O)c1ccc(OCc2nc(-c3ccco3)cs2)cc1` displayed an RP-LC retention time of 690 s.

The molecule `CC(=O)NCC(O)c1ccc([N+](=O)[O-])cc1` (centres undefined) returned an RP-LC retention time of 661 s.

As for `Fc1ccccc1-c1noc(NCC2CCCO2)n1` (centres undefined), the RP-LC retention time stood at 748 s.

Turning to `COc1ccc(NS(=O)(=O)c2c(C)c(-c3nnc(C4CCC4)o3)n(C)c2C)c(C)c1`, the RP-LC retention time stood at 929 s.

Consider `CC(C)CC(=O)Nc1ccc(-n2cnc(C(=O)NC3CCCCCC3)c2)nc1`, for which the RP-LC retention time turned out to be 865 s.

With `O=C(CCn1cnc2cc(-c3noc(-c4ccc5c(c4)OCO5)n3)ccc21)N1CCCC1`, the RP-LC retention time was determined as 727 s.

Molecule `COc1cccc(-c2ccc(=O)n(CCc3nc(-c4cc(OC)cc(OC)c4)no3)n2)c1` displayed an RP-LC retention time of 955 s.

For the molecule `CCCCNC(=O)c1ccc2nc(CCc3ccc(NC(=O)CC)cc3)[nH]c2c1`, the RP-LC retention time is 570 s.

Turning to `O=C(NCCc1ccccc1)N1CCC(c2noc(-c3ccccn3)n2)C1` (centres undefined), the RP-LC retention time stood at 742 s.

In the case of `O=c1c(S(=O)(=O)N2CCCC2)cccn1Cc1cccc(F)c1`, the RP-LC retention time stood at 823 s.

On to `COc1ccc(OC)c(S(=O)(=O)N2CCCOCCNC(=O)[C@@H]3CCC[C@@H]32)c1`, for which the RP-LC retention time was 720 s.

Consider `CC(C)C(=O)Nc1ccc(S(=O)(=O)NCC(c2ccsc2)N(C)C)cc1` (centres undefined), for which the RP-LC retention time worked out at 565 s.

`O=C(CN1CCN(S(=O)(=O)c2ccccc2)CC1)Nc1ccc(Br)cc1` registered an RP-LC retention time of 722 s.

Molecule `COc1ccc(OC)c(COCC(O)CN2CCc3cc(OC)c(OC)cc3C2)c1` (centres undefined) gave an RP-LC retention time of 575 s.

Regarding `CCCN1C(=O)c2cc(S(=O)(=O)N3CCCCC3)ccc2Oc2cccnc21`, the RP-LC retention time came out at 1110 s.
